{
  "source": "ChEMBL document CHEMBL5634162",
  "about": "“Cyclohexylalanine-Containing α-Helical Amphipathic Peptide Targets Cardiolipin, Rescuing Mitochondrial Dysfunction in Kidney Injury” (J Med Chem, 2024)",
  "note": "Where a SMILES comes first, the peptide text is derived from it. Bridges are numbered along the chain shown (N, C = ends). Roman numbers before positions name the chains, in order. [ ]: non-standard residue; d: D form. The star is where a group is joined. 5TAMRA = CN(C)c1ccc2c(c1)Oc1cc(N(C)C)ccc1C21OC(=O)c2cc(C(=O)*)ccc21; Cha = N[C@@H](CC1CCCCC1)C(=O)O",
  "data": [
    {"assay": "Drug localization in mitochondria of human HeLa cells at EC50 incubated for 3 hrs by fluorescence based assay", "format": "ADME", "units": {"Drug uptake": "%"}, "values": [
      {"smiles": "CC(=O)N[C@@H](CC(C)C)C(=O)N[C@H]1CSSC[C@@H](C(=O)N[C@@H](CCCNC(=N)N)C(N)=O)NC(=O)[C@H](CC2CCCCC2)NC(=O)[C@H](CCCNC(=N)N)NC(=O)[C@H](CCCNC(=N)N)NC(=O)[C@H](CC2CCCCC2)NC(=O)[C@H](CC2CCCCC2)NC(=O)[C@H](CCCNC(=N)N)NC(=O)[C@@H](NC(=O)[C@H](CC(C)C)NC(=O)c2ccc3c(c2)C(=O)OC32c3ccc(N(C)C)cc3Oc3cc(N(C)C)ccc32)CSSC[C@@H](C(=O)N[C@@H](CCCNC(=N)N)C(N)=O)NC(=O)[C@H](CC2CCCCC2)NC(=O)[C@H](CCCNC(=N)N)NC(=O)[C@H](CCCNC(=N)N)NC(=O)[C@H](CC2CCCCC2)NC(=O)[C@H](CC2CCCCC2)NC(=O)[C@H](CCCNC(=N)N)NC1=O", "note": "(I: Ac-LCR[Cha][Cha]RR[Cha]CR-NH2 / II: 5TAMRA-LCR[Cha][Cha]RR[Cha]CR-NH2; disulfide I:2-II:9, I:9-II:2)", "Drug uptake": 53},
      {"smiles": "CC(=O)N[C@@H](CC1CCCCC1)C(=O)N[C@H]1CSSC[C@@H](C(=O)N[C@@H](CCCNC(=N)N)C(N)=O)NC(=O)[C@H](CC(C)C)NC(=O)[C@H](CCCNC(=N)N)NC(=O)[C@H](CCCNC(=N)N)NC(=O)[C@H](CC(C)C)NC(=O)[C@H](CC(C)C)NC(=O)[C@H](CCCNC(=N)N)NC(=O)[C@@H](NC(=O)[C@H](CC2CCCCC2)NC(=O)c2ccc3c(c2)C(=O)OC32c3ccc(N(C)C)cc3Oc3cc(N(C)C)ccc32)CSSC[C@@H](C(=O)N[C@@H](CCCNC(=N)N)C(N)=O)NC(=O)[C@H](CC(C)C)NC(=O)[C@H](CCCNC(=N)N)NC(=O)[C@H](CCCNC(=N)N)NC(=O)[C@H](CC(C)C)NC(=O)[C@H](CC(C)C)NC(=O)[C@H](CCCNC(=N)N)NC1=O", "note": "(I: Ac-[Cha]CRLLRRLCR-NH2 / II: 5TAMRA-[Cha]CRLLRRLCR-NH2; disulfide I:2-II:9, I:9-II:2)", "Drug uptake": 53},
      {"smiles": "CC(=O)N[C@@H](CC1CCCCC1)C(=O)N[C@H]1CSSC[C@@H](C(=O)N[C@@H](CCCNC(=N)N)C(N)=O)NC(=O)[C@H](CC2CCCCC2)NC(=O)[C@H](CCCNC(=N)N)NC(=O)[C@H](CCCNC(=N)N)NC(=O)[C@H](CC(C)C)NC(=O)[C@H](CC(C)C)NC(=O)[C@H](CCCNC(=N)N)NC(=O)[C@@H](NC(=O)[C@H](CC2CCCCC2)NC(=O)c2ccc3c(c2)C(=O)OC32c3ccc(N(C)C)cc3Oc3cc(N(C)C)ccc32)CSSC[C@@H](C(=O)N[C@@H](CCCNC(=N)N)C(N)=O)NC(=O)[C@H](CC2CCCCC2)NC(=O)[C@H](CCCNC(=N)N)NC(=O)[C@H](CCCNC(=N)N)NC(=O)[C@H](CC(C)C)NC(=O)[C@H](CC(C)C)NC(=O)[C@H](CCCNC(=N)N)NC1=O", "note": "(I: Ac-[Cha]CRLLRR[Cha]CR-NH2 / II: 5TAMRA-[Cha]CRLLRR[Cha]CR-NH2; disulfide I:2-II:9, I:9-II:2)", "Drug uptake": 53},
      {"smiles": "CC(=O)N[C@@H](CC1CCCCC1)C(=O)N[C@H]1CSSC[C@@H](C(=O)N[C@@H](CCCNC(=N)N)C(N)=O)NC(=O)[C@H](CC(C)C)NC(=O)[C@H](CCCNC(=N)N)NC(=O)[C@H](CCCNC(=N)N)NC(=O)[C@H](CC(C)C)NC(=O)[C@H](CC2CCCCC2)NC(=O)[C@H](CCCNC(=N)N)NC(=O)[C@@H](NC(=O)[C@H](CC2CCCCC2)NC(=O)c2ccc3c(c2)C(=O)OC32c3ccc(N(C)C)cc3Oc3cc(N(C)C)ccc32)CSSC[C@@H](C(=O)N[C@@H](CCCNC(=N)N)C(N)=O)NC(=O)[C@H](CC(C)C)NC(=O)[C@H](CCCNC(=N)N)NC(=O)[C@H](CCCNC(=N)N)NC(=O)[C@H](CC(C)C)NC(=O)[C@H](CC2CCCCC2)NC(=O)[C@H](CCCNC(=N)N)NC1=O", "note": "(I: Ac-[Cha]CR[Cha]LRRLCR-NH2 / II: 5TAMRA-[Cha]CR[Cha]LRRLCR-NH2; disulfide I:2-II:9, I:9-II:2)", "Drug uptake": 53},
      {"smiles": "CC(=O)N[C@@H](CC1CCCCC1)C(=O)N[C@H]1CSSC[C@@H](C(=O)N[C@@H](CCCNC(=N)N)C(N)=O)NC(=O)[C@H](CC(C)C)NC(=O)[C@H](CCCNC(=N)N)NC(=O)[C@H](CCCNC(=N)N)NC(=O)[C@H](CC2CCCCC2)NC(=O)[C@H](CC2CCCCC2)NC(=O)[C@H](CCCNC(=N)N)NC(=O)[C@@H](NC(=O)[C@H](CC2CCCCC2)NC(=O)c2ccc3c(c2)C(=O)OC32c3ccc(N(C)C)cc3Oc3cc(N(C)C)ccc32)CSSC[C@@H](C(=O)N[C@@H](CCCNC(=N)N)C(N)=O)NC(=O)[C@H](CC(C)C)NC(=O)[C@H](CCCNC(=N)N)NC(=O)[C@H](CCCNC(=N)N)NC(=O)[C@H](CC2CCCCC2)NC(=O)[C@H](CC2CCCCC2)NC(=O)[C@H](CCCNC(=N)N)NC1=O", "note": "(I: Ac-[Cha]CR[Cha][Cha]RRLCR-NH2 / II: 5TAMRA-[Cha]CR[Cha][Cha]RRLCR-NH2; disulfide I:2-II:9, I:9-II:2)", "Drug uptake": 53},
      {"smiles": "CC(=O)N[C@@H](CC(C)C)C(=O)N[C@H]1CSSC[C@@H](C(=O)N[C@@H](CCCNC(=N)N)C(N)=O)NC(=O)[C@H](CC(C)C)NC(=O)[C@H](CCCNC(=N)N)NC(=O)[C@H](CCCNC(=N)N)NC(=O)[C@H](CC(C)C)NC(=O)[C@H](CC2CCCCC2)NC(=O)[C@H](CCCNC(=N)N)NC(=O)[C@@H](NC(=O)[C@H](CC(C)C)NC(=O)c2ccc3c(c2)C(=O)OC32c3ccc(N(C)C)cc3Oc3cc(N(C)C)ccc32)CSSC[C@@H](C(=O)N[C@@H](CCCNC(=N)N)C(N)=O)NC(=O)[C@H](CC(C)C)NC(=O)[C@H](CCCNC(=N)N)NC(=O)[C@H](CCCNC(=N)N)NC(=O)[C@H](CC(C)C)NC(=O)[C@H](CC2CCCCC2)NC(=O)[C@H](CCCNC(=N)N)NC1=O", "note": "(I: Ac-LCR[Cha]LRRLCR-NH2 / II: 5TAMRA-LCR[Cha]LRRLCR-NH2; disulfide I:2-II:9, I:9-II:2)", "Drug uptake": 53},
      {"smiles": "CC(=O)N[C@@H](CC(C)C)C(=O)N[C@H]1CSSC[C@@H](C(=O)N[C@@H](CCCNC(=N)N)C(N)=O)NC(=O)[C@H](CC2CCCCC2)NC(=O)[C@H](CCCNC(=N)N)NC(=O)[C@H](CCCNC(=N)N)NC(=O)[C@H](CC(C)C)NC(=O)[C@H](CC(C)C)NC(=O)[C@H](CCCNC(=N)N)NC(=O)[C@@H](NC(=O)[C@H](CC(C)C)NC(=O)c2ccc3c(c2)C(=O)OC32c3ccc(N(C)C)cc3Oc3cc(N(C)C)ccc32)CSSC[C@@H](C(=O)N[C@@H](CCCNC(=N)N)C(N)=O)NC(=O)[C@H](CC2CCCCC2)NC(=O)[C@H](CCCNC(=N)N)NC(=O)[C@H](CCCNC(=N)N)NC(=O)[C@H](CC(C)C)NC(=O)[C@H](CC(C)C)NC(=O)[C@H](CCCNC(=N)N)NC1=O", "note": "(I: Ac-LCRLLRR[Cha]CR-NH2 / II: 5TAMRA-LCRLLRR[Cha]CR-NH2; disulfide I:2-II:9, I:9-II:2)", "Drug uptake": 53},
      {"smiles": "CC(=O)N[C@@H](CC(C)C)C(=O)N[C@H]1CSSC[C@@H](C(=O)N[C@@H](CCCNC(=N)N)C(N)=O)NC(=O)[C@H](CC2CCCCC2)NC(=O)[C@H](CCCNC(=N)N)NC(=O)[C@H](CCCNC(=N)N)NC(=O)[C@H](CC(C)C)NC(=O)[C@H](CC2CCCCC2)NC(=O)[C@H](CCCNC(=N)N)NC(=O)[C@@H](NC(=O)[C@H](CC(C)C)NC(=O)c2ccc3c(c2)C(=O)OC32c3ccc(N(C)C)cc3Oc3cc(N(C)C)ccc32)CSSC[C@@H](C(=O)N[C@@H](CCCNC(=N)N)C(N)=O)NC(=O)[C@H](CC2CCCCC2)NC(=O)[C@H](CCCNC(=N)N)NC(=O)[C@H](CCCNC(=N)N)NC(=O)[C@H](CC(C)C)NC(=O)[C@H](CC2CCCCC2)NC(=O)[C@H](CCCNC(=N)N)NC1=O", "note": "(I: Ac-LCR[Cha]LRR[Cha]CR-NH2 / II: 5TAMRA-LCR[Cha]LRR[Cha]CR-NH2; disulfide I:2-II:9, I:9-II:2)", "Drug uptake": 53},
      {"smiles": "CC(=O)N[C@@H](CC(C)C)C(=O)N[C@H]1CSSC[C@@H](C(=O)N[C@@H](CCCNC(=N)N)C(N)=O)NC(=O)[C@H](CC2CCCCC2)NC(=O)[C@H](CCCNC(=N)N)NC(=O)[C@H](CCCNC(=N)N)NC(=O)[C@H](CC2CCCCC2)NC(=O)[C@H](CC(C)C)NC(=O)[C@H](CCCNC(=N)N)NC(=O)[C@@H](NC(=O)[C@H](CC(C)C)NC(=O)c2ccc3c(c2)C(=O)OC32c3ccc(N(C)C)cc3Oc3cc(N(C)C)ccc32)CSSC[C@@H](C(=O)N[C@@H](CCCNC(=N)N)C(N)=O)NC(=O)[C@H](CC2CCCCC2)NC(=O)[C@H](CCCNC(=N)N)NC(=O)[C@H](CCCNC(=N)N)NC(=O)[C@H](CC2CCCCC2)NC(=O)[C@H](CC(C)C)NC(=O)[C@H](CCCNC(=N)N)NC1=O", "note": "(I: Ac-LCRL[Cha]RR[Cha]CR-NH2 / II: 5TAMRA-LCRL[Cha]RR[Cha]CR-NH2; disulfide I:2-II:9, I:9-II:2)", "Drug uptake": 53},
      {"smiles": "CC(=O)N[C@@H](CC1CCCCC1)C(=O)N[C@H]1CSSC[C@@H](C(=O)N[C@@H](CCCNC(=N)N)C(N)=O)NC(=O)[C@H](CC2CCCCC2)NC(=O)[C@H](CCCNC(=N)N)NC(=O)[C@H](CCCNC(=N)N)NC(=O)[C@H](CC2CCCCC2)NC(=O)[C@H](CC2CCCCC2)NC(=O)[C@H](CCCNC(=N)N)NC(=O)[C@@H](NC(=O)[C@H](CC2CCCCC2)NC(=O)c2ccc3c(c2)C(=O)OC32c3ccc(N(C)C)cc3Oc3cc(N(C)C)ccc32)CSSC[C@@H](C(=O)N[C@@H](CCCNC(=N)N)C(N)=O)NC(=O)[C@H](CC2CCCCC2)NC(=O)[C@H](CCCNC(=N)N)NC(=O)[C@H](CCCNC(=N)N)NC(=O)[C@H](CC2CCCCC2)NC(=O)[C@H](CC2CCCCC2)NC(=O)[C@H](CCCNC(=N)N)NC1=O", "note": "(I: Ac-[Cha]CR[Cha][Cha]RR[Cha]CR-NH2 / II: 5TAMRA-[Cha]CR[Cha][Cha]RR[Cha]CR-NH2; disulfide I:2-II:9, I:9-II:2)", "Drug uptake": 53},
      {"smiles": "CC(=O)N[C@@H](CC1CCCCC1)C(=O)N[C@H]1CSSC[C@@H](C(=O)N[C@@H](CCCNC(=N)N)C(N)=O)NC(=O)[C@H](CC(C)C)NC(=O)[C@H](CCCNC(=N)N)NC(=O)[C@H](CCCNC(=N)N)NC(=O)[C@H](CC2CCCCC2)NC(=O)[C@H](CC(C)C)NC(=O)[C@H](CCCNC(=N)N)NC(=O)[C@@H](NC(=O)[C@H](CC2CCCCC2)NC(=O)c2ccc3c(c2)C(=O)OC32c3ccc(N(C)C)cc3Oc3cc(N(C)C)ccc32)CSSC[C@@H](C(=O)N[C@@H](CCCNC(=N)N)C(N)=O)NC(=O)[C@H](CC(C)C)NC(=O)[C@H](CCCNC(=N)N)NC(=O)[C@H](CCCNC(=N)N)NC(=O)[C@H](CC2CCCCC2)NC(=O)[C@H](CC(C)C)NC(=O)[C@H](CCCNC(=N)N)NC1=O", "note": "(I: Ac-[Cha]CRL[Cha]RRLCR-NH2 / II: 5TAMRA-[Cha]CRL[Cha]RRLCR-NH2; disulfide I:2-II:9, I:9-II:2)", "Drug uptake": 53}
    ]}
  ]
}
